# Test system: not listed separately
# Assay: Metabolic stability in pooled liver microsomes
# Assay type: in vitro ADME
# Details: human liver microsomes, 37° C., 1 mg/mL microsomal protein, test compound 1 μM, NADPH
# Experimental: The metabolic stability of the compounds according to the invention has been investigated as follows:
# The metabolic degradation of the test compound was assayed at 37° C. with pooled liver microsomes from various species. The final incubation volume of 100 μl per time point contains TRIS buffer pH 7.6 at room temperature (0.1 M), magnesium chloride (5 mM), microsomal protein (1 mg/mL for human and dog, 0.5 mg/mL for other species) and the test compound at a final concentration of 1 μM. Following a short preincubation period at 37° C., the reactions were initiated by addition of betanicotinamide adenine dinucleotide phosphate, reduced form (NADPH, 1 mM), and terminated by transferring an aliquot into solvent after different time points. […] The half-life was determined by the slope of the semi-logarithmic plot of the concentration-time profile.
row,Half-life - t½ [h],SMILES
1,2.17,Cc1nc2cccnc2n2c(-c3cc(OC4COCC4O)ccc3Cl)nnc12 (racemic) [Example 55]
2,2.17,Cc1ccc(C2(O)CCOCC2O)cc1-c1nnc2c(C)nc3ccc(C4CC4)nc3n12 (racemic) [Example 104]
3,2.17,"Cc1nc2cccnc2n2c(-c3cc(OC4COCCC4O)ccc3Cl)nnc12 (single isomer, unassigned) [Example 58]"
4,2.17,"Cc1nc2cccnc2n2c(-c3cc(C4(O)CCOC4)ccc3Cl)nnc12 (single isomer, unassigned) [Example 99]"
5,2.17,"Cc1ccc(C2(O)CCOCC2O)cc1-c1nnc2c(C)nc3ccc(C4CC4)nc3n12 (single isomer, unassigned) [Example 104a]"
6,2.17,"Cc1ccc(C2(O)CCOCC2O)cc1-c1nnc2c(C)nc3ccc(C4CC4)nc3n12 (single isomer, unassigned) [Example 104b]"
7,2.17,Cc1nc2cccnc2n2c(-c3cc(OC[C@H](C)O)ccc3Cl)nnc12 [Example 18]
8,2.17,Cc1ccc2nc(C)c3nnc(-c4cc(OC5CCOCC5)ccc4Cl)n3c2n1 [Example 32]
9,2.17,Cc1nc2cccnc2n2c(-c3cc(OCC(C)(C)O)ccc3Cl)nnc12 [Example 44]
10,2.17,Cc1nc2ccc(C3CC3)nc2n2c(-c3cc(OCC(C)(C)O)ccc3Cl)nnc12 [Example 45]
11,2.17,Cc1ccc(OCC(C)(C)O)cc1-c1nnc2c(C)nc3ccc(C4CC4)nc3n12 [Example 48]
12,2.17,Cc1ccc(OCC2(O)CCC2)cc1-c1nnc2c(C)nc3cccnc3n12 [Example 50]
13,2.17,Cc1nc2ccc(C(C)C)nc2n2c(-c3cc(OCC(C)(C)O)ccc3F)nnc12 [Example 52]
14,2.17,Cc1nc2cc(C(C)C)cnc2n2c(-c3cc(OCC(C)(C)O)ccc3Cl)nnc12 [Example 54]
15,2.17,Cc1ccc2nc(C)c3nnc(-c4cc(C(C)O)ccc4Cl)n3c2n1 (stereo not drawn) [Example 63]
16,2.17,Cc1ccc(CCC(C)(C)O)cc1-c1nnc2c(C)nc3cccnc3n12 [Example 67]
17,2.17,Cc1nc2cccnc2n2c(-c3cc(C(C)(C)O)ccc3Cl)nnc12 [Example 70]

# Molecular target: PDE2A (Homo sapiens, UniProt O00408)
# Assay: PDE 2A assay with fluorescent substrate (IMAP, fluorescence polarization)
# Assay type: biochemical
# Details: read-out: PDE2 IC50
# Text: c) Phosphodiesterase (PDE) 2A and 10 Assay with Fluorescent Substrate
# The PDE reaction cleaves cAMP to AMP. The IMAP system (Molecular Device) using fluorescence polarization (FP) as detection principle was used to measure enzyme activity. A fluorescent labeled cAMP was used as substrate for the reaction, generating a labeled AMP. The fluorescent AMP binds specifically to the large M(III)-based nano-particles which reduces the rotational speed of the substrate and thus increases its polarization.
# The inhibition of PDE 2A or 10 enzyme activity was assessed using IMAP-Phosphodiesterase-cAMP fluorescence labeled substrate (Molecular Devices, Order No. R7506), IMAP TR-FRET screening express (Molecular Devices, Order No. R8160, the TR-FRET component will not be used) and PDE 2A or PDE10 protein expressed upon baculovirus infection in SF9 cells. The cells were incubated after infection for ˜3 days and protein production was confirmed by Western Blot. The cells were collected by centrifugation and the pellet frozen in liquid nitrogen before it was resuspended in PBS containing 1% Triton X-100 and protease inhibitors.
# All reactions were performed in 384 well plates, Perkin Elmer black optiplates and IMAP reaction buffer with 0.1% Tween20 (kit component)
# Compounds were serial diluted in DMSO. With an intermediate dilution step with reaction buffer DMSO concentration was reduced to achieve 1% DMSO in the assay reaction. Setup of the assay started with 10 μl enzyme (˜10 ng/well, depending on prep. batch), 5 μl compound, reaction was started by addition of 5 μl labeled cAMP (30 nM, final concentration), immediately mixed for 15 seconds on a Eppendorf mixmate (2000 rpm) followed by an incubation at room temperature for 90 minutes in the dark. Reaction is stopped by adding of 60 μl binding buffer for FP/cAMP (kit component).
# Each assay plate contained wells with vehicle controls (1% DMSO) for the measurement of non-inhibited reaction (=100% control) and wells without enzyme as 0% controls.
# Chain of PDE2A (O00408 whole entry, species assumed): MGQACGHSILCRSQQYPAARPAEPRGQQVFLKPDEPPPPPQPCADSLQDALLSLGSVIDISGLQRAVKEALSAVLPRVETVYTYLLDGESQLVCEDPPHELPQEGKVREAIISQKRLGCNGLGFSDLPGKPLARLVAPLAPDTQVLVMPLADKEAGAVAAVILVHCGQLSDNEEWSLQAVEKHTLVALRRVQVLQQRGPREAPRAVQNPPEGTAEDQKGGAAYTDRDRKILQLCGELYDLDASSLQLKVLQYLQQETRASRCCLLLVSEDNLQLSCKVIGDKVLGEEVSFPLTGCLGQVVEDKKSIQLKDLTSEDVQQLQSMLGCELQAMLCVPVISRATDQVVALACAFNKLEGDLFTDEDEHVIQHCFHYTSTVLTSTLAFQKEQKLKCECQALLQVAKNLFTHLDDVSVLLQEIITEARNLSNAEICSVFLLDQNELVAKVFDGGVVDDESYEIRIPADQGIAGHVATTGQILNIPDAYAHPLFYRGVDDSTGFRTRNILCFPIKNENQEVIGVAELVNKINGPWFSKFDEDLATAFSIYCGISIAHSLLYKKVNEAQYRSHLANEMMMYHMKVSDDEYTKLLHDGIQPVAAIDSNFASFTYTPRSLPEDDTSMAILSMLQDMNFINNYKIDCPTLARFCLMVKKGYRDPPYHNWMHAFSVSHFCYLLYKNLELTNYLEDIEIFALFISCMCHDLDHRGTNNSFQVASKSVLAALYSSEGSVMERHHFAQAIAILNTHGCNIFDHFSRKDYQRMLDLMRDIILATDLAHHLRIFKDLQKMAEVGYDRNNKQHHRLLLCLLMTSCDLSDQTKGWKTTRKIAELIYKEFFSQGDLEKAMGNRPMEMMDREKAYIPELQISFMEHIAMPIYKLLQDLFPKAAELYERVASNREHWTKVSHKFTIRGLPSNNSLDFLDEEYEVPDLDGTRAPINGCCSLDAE
row,IC50 [nM],SMILES
1,36,Cc1ccc(C2(O)CCOCC2O)cc1-c1nnc2c(C)nc3ccc(C4CC4)nc3n12 (racemic) [Example 104]
2,143,"Cc1nc2cccnc2n2c(-c3cc(OC4COCCC4O)ccc3Cl)nnc12 (single isomer, unassigned) [Example 58]"
3,125,"Cc1nc2cccnc2n2c(-c3cc(C4(O)CCOC4)ccc3Cl)nnc12 (single isomer, unassigned) [Example 99]"
4,40,"Cc1ccc(C2(O)CCOCC2O)cc1-c1nnc2c(C)nc3ccc(C4CC4)nc3n12 (single isomer, unassigned) [Example 104a]"
5,30,"Cc1ccc(C2(O)CCOCC2O)cc1-c1nnc2c(C)nc3ccc(C4CC4)nc3n12 (single isomer, unassigned) [Example 104b]"
6,156,Cc1nc2cccnc2n2c(-c3cc(OCC(C)(C)O)ccc3Cl)nnc12 [Example 44]
7,8,Cc1ccc(OCC(C)(C)O)cc1-c1nnc2c(C)nc3ccc(C4CC4)nc3n12 [Example 48]
8,194,Cc1ccc(OCC2(O)CCC2)cc1-c1nnc2c(C)nc3cccnc3n12 [Example 50]
9,11,Cc1nc2ccc(C(C)C)nc2n2c(-c3cc(OCC(C)(C)O)ccc3F)nnc12 [Example 52]
10,58,Cc1nc2cc(C(C)C)cnc2n2c(-c3cc(OCC(C)(C)O)ccc3Cl)nnc12 [Example 54]
11,60,Cc1ccc2nc(C)c3nnc(-c4cc(C(C)O)ccc4Cl)n3c2n1 (stereo not drawn) [Example 63]
12,175,Cc1ccc(CCC(C)(C)O)cc1-c1nnc2c(C)nc3cccnc3n12 [Example 67]
13,163,Cc1nc2cccnc2n2c(-c3cc(C(C)(C)O)ccc3Cl)nnc12 [Example 70]

# Molecular target: hERG channel (Homo sapiens, UniProt Q12809)
# Assay: hERG channel assay (whole-cell patch clamp, HEK293 cells transfected with hERG cDNA)
# Assay type: cell-based
# Details: 35° C.
# Text: hERG (Human Ether-à-Go-Go-Related Gene)-Channel Assay
# hERG channel inhibition of compounds of the present invention has been investigated as follows:
# HEK (human embryonic kidney) 293 cells were stably transfected with hERG cDNA. Cells were superfused with a bath solution containing (mM): NaCl (137), KCl (4.0), MgCl2 (1.0), CaCl2 (1.8), Glucose (10), HEPES (10), pH 7.4 with NaOH. Patch pipettes were made from borosilicate glass tubing using a horizontal puller and filled with pipette solution containing (mM): K-aspartate (130), MgCl2 (5.0), EGTA (5.0), K2ATP (4.0), HEPES (10.0), pH 7.2 with KOH. Resistance of the microelectrodes was in the range between 2 and 5 MΩ.
# Stimulation and Recording:
# Membrane currents were recorded using an EPC-10 patch clamp amplifier and PatchMaster software. hERG-mediated membrane currents were recorded at 35° C., using the whole-cell configuration of the patch-clamp technique. Transfected HEK293 cells were clamped at a holding potential of −60 mV and hERG-mediated inactivating tail currents were elicited using a pulse pattern with fixed amplitudes (activation/inactivation: 40 mV for 2000 ms; recovery: […]; ramp to 40 mV in 2 ms; inactivating tail current: 40 mV for 50 ms) repeated at 15 s intervals. During each inter-pulse interval 4 pulses scaled down by a factor of 0.2 were recorded for a P/n leak subtraction procedure. […] compensation was employed up to a level that safely allowed recording devoid of ringing.
# Compound Preparation and Application:
# The different concentrations of the test compound were applied sequentially on each of the different cells investigated. A steady state level of baseline current was measured for at least 6 sweeps prior to the application of the first test compound concentration.
# The test compound was dissolved in DMSO to yield a master stock solution which was diluted further in DMSO to stock solutions needed for the lower concentrations. Final dilutions in extracellular buffer were prepared freshly from these stocks by a 1:1000 dilution step each before starting the experiments.
# Data analysis and IC50 determination:
# Peak current amplitudes were measured 3 ms after the ramp to +40 mV. For baseline and each concentration the peak currents of the three last sweeps before application of the next concentration were averaged. Residual currents ( 1/10) were calculated for each cell as the fraction of actual average peak current and average baseline peak current.
# The logistic concentration-response curve of the following form was fitted to the residual current data using a genetic algorithm:
# C: actual concentration of compound (in μM) IC50: half-inhibitory concentration (in μM) p: Hill slope
# Chain of hERG channel (Q12809 whole entry): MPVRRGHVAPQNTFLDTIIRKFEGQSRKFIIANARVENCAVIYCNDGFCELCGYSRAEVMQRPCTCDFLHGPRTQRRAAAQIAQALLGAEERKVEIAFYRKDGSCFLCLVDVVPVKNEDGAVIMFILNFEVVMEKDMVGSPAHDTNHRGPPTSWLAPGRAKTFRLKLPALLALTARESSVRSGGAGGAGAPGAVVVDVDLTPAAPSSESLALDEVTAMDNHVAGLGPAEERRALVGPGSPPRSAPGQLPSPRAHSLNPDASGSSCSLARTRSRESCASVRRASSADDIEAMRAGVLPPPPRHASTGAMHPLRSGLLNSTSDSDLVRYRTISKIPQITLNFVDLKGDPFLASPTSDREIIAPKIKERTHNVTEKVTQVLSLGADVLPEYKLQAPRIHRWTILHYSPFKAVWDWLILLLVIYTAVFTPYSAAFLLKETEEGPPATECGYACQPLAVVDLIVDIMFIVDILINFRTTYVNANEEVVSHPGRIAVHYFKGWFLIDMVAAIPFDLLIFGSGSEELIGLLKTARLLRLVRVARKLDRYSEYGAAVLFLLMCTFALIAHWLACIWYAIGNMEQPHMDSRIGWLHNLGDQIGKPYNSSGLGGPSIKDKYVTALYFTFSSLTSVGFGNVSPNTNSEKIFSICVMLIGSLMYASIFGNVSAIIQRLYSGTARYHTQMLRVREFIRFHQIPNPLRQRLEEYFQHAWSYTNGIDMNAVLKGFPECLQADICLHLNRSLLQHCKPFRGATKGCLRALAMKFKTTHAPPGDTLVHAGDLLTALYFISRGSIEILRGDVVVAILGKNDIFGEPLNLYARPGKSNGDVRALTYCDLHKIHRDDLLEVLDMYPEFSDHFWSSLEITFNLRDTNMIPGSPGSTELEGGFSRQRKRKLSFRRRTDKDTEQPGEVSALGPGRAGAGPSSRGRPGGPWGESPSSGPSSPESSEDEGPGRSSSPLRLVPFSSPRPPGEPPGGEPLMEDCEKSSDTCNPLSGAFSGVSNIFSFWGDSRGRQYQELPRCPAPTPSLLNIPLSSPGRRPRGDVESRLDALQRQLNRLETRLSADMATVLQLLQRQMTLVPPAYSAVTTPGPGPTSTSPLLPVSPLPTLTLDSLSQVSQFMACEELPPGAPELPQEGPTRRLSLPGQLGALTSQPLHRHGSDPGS
row,SMILES,IC50 [nM]
1,Cc1nc2cccnc2n2c(-c3cc(OC4COCC4O)ccc3Cl)nnc12 (racemic) [Example 55],> 10000
2,Cc1nc2cccnc2n2c(-c3cc(OC[C@H](C)O)ccc3Cl)nnc12 [Example 18],> 10000
3,Cc1ccc2nc(C)c3nnc(-c4cc(OC5CCOCC5)ccc4Cl)n3c2n1 [Example 32],> 10000
4,Cc1nc2ccc(C3CC3)nc2n2c(-c3cc(OCC(C)(C)O)ccc3Cl)nnc12 [Example 45],> 10000
5,Cc1ccc(OCC(C)(C)O)cc1-c1nnc2c(C)nc3ccc(C4CC4)nc3n12 [Example 48],> 10000

# Molecular target: PDE10 (Homo sapiens, UniProt Q9Y233)
# Assay: PDE10 assay with fluorescent substrate (IMAP, fluorescence polarization)
# Assay type: biochemical
# Details: not given
# Chain of PDE10 (Q9Y233 whole entry, species assumed): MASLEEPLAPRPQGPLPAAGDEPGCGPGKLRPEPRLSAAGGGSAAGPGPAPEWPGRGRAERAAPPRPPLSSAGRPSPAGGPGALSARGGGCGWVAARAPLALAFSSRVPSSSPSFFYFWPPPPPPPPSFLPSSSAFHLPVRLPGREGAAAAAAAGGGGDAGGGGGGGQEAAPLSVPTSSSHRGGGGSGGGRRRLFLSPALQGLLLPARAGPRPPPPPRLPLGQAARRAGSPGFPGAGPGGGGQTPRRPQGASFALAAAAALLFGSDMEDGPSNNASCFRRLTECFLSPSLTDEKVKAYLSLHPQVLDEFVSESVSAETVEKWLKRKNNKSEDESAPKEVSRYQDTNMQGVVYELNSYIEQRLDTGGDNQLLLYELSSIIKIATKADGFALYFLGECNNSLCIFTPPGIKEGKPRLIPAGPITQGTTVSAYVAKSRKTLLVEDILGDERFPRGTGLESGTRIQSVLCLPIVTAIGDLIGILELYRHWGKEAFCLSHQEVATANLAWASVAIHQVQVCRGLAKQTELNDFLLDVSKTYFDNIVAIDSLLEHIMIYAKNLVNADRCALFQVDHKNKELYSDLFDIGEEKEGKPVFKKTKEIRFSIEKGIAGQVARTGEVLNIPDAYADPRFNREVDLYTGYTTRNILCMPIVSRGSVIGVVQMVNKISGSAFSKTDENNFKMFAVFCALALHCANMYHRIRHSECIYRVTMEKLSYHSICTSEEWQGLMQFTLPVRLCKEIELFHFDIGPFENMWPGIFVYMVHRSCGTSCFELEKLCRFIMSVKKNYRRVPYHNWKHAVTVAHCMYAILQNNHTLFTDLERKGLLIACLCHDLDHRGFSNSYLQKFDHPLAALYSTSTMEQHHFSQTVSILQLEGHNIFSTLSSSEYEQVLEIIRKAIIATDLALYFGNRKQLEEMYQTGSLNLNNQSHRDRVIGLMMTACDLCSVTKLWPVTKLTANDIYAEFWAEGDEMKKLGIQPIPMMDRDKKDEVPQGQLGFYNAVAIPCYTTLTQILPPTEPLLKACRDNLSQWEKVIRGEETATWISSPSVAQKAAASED
row,IC50 [nM],SMILES
1,7720,Cc1ccc(C2(O)CCOCC2O)cc1-c1nnc2c(C)nc3ccc(C4CC4)nc3n12 (racemic) [Example 104]
2,663,"Cc1nc2cccnc2n2c(-c3cc(OC4COCCC4O)ccc3Cl)nnc12 (single isomer, unassigned) [Example 58]"
3,1510,"Cc1nc2cccnc2n2c(-c3cc(C4(O)CCOC4)ccc3Cl)nnc12 (single isomer, unassigned) [Example 99]"
4,3230,"Cc1ccc(C2(O)CCOCC2O)cc1-c1nnc2c(C)nc3ccc(C4CC4)nc3n12 (single isomer, unassigned) [Example 104a]"
5,9760,"Cc1ccc(C2(O)CCOCC2O)cc1-c1nnc2c(C)nc3ccc(C4CC4)nc3n12 (single isomer, unassigned) [Example 104b]"
6,6040,Cc1nc2cccnc2n2c(-c3cc(OCC(C)(C)O)ccc3Cl)nnc12 [Example 44]
7,7120,Cc1ccc(OCC2(O)CCC2)cc1-c1nnc2c(C)nc3cccnc3n12 [Example 50]
8,1200,Cc1nc2ccc(C(C)C)nc2n2c(-c3cc(OCC(C)(C)O)ccc3F)nnc12 [Example 52]
9,798,Cc1nc2cc(C(C)C)cnc2n2c(-c3cc(OCC(C)(C)O)ccc3Cl)nnc12 [Example 54]
10,1710,Cc1ccc2nc(C)c3nnc(-c4cc(C(C)O)ccc4Cl)n3c2n1 (stereo not drawn) [Example 63]
11,3900,Cc1ccc(CCC(C)(C)O)cc1-c1nnc2c(C)nc3cccnc3n12 [Example 67]
12,8620,Cc1nc2cccnc2n2c(-c3cc(C(C)(C)O)ccc3Cl)nnc12 [Example 70]

# Test system: not listed separately
# Assay: Animal experiments and sample analysis: plasma, brain and CSF concentration
# Assay type: in vivo
# Details: brain; rat; 0.5 h between administration and CSF sampling; doses of 10.0 or 5 μmol/kg; read-out: conc brain
# Experimental: Test compounds were administered to animals (rat) different routes at doses of 10.0 or 5 μmol/kg, (both oral and intravenous). After compound administration, the animals were sacrificed in a CO2 chamber and CSF samples were carefully collected by puncture of the cisterna magna. Immediately after CSF sampling, blood was taken by heart puncture and brains were dissected out. Blood was collected in EDTA-coated microvettes and plasma was prepared by centrifugation. Concentration of the test compounds in plasma, CSF or brain homogenate was determined using HPLC-MS-MS.
row,concentration at 0.5 h [nM],SMILES
1,351,Cc1nc2cccnc2n2c(-c3cc(OC[C@H](C)O)ccc3Cl)nnc12 [Example 18]
2,670,Cc1nc2cccnc2n2c(-c3cc(OCC(C)(C)O)ccc3Cl)nnc12 [Example 44]

# Same assay, conditions: brain; rat; 0.5 h between administration and CSF sampling; read-out: c(brain)/c(plasma)
row,Kp at 0.5 h,SMILES
1,0.31,Cc1nc2cccnc2n2c(-c3cc(OCC(C)(C)O)ccc3Cl)nnc12 [Example 44]

# Same assay, conditions: brain; rat; 2 h between administration and CSF sampling; doses of 10.0 or 5 μmol/kg; read-out: conc brain
row,concentration at 2 h [nM],SMILES
1,183,Cc1nc2ccc(C3CC3)nc2n2c(-c3cc(OCC(C)(C)O)ccc3Cl)nnc12 [Example 45]
2,695,Cc1nc2cccnc2n2c(-c3cc(C(C)(C)O)ccc3Cl)nnc12 [Example 70]

# Same assay, conditions: brain; rat; 2 h between administration and CSF sampling; read-out: c(brain)/c(plasma)
row,Kp at 2 h,SMILES
1,0.29,Cc1nc2cccnc2n2c(-c3cc(C(C)(C)O)ccc3Cl)nnc12 [Example 70]

# Same assay, conditions: plasma; rat; 0.5 h between administration and CSF sampling; doses of 10.0 or 5 μmol/kg; read-out: conc plasma
row,concentration at 0.5 h [nM],SMILES
1,1220,Cc1nc2cccnc2n2c(-c3cc(OC[C@H](C)O)ccc3Cl)nnc12 [Example 18]
2,2190,Cc1nc2cccnc2n2c(-c3cc(OCC(C)(C)O)ccc3Cl)nnc12 [Example 44]

# Same assay, conditions: plasma; rat; 2 h between administration and CSF sampling; doses of 10.0 or 5 μmol/kg; read-out: conc plasma
row,concentration at 2 h [nM],SMILES
1,801,Cc1nc2ccc(C3CC3)nc2n2c(-c3cc(OCC(C)(C)O)ccc3Cl)nnc12 [Example 45]
2,2380,Cc1nc2cccnc2n2c(-c3cc(C(C)(C)O)ccc3Cl)nnc12 [Example 70]

# Same assay, conditions: rat; 0.5 h between administration and CSF sampling; doses of 10.0 or 5 μmol/kg; read-out: conc CSF
row,concentration at 0.5 h [nM],SMILES
1,163,Cc1nc2cccnc2n2c(-c3cc(OC[C@H](C)O)ccc3Cl)nnc12 [Example 18]
2,228,Cc1nc2cccnc2n2c(-c3cc(OCC(C)(C)O)ccc3Cl)nnc12 [Example 44]

# Same assay, conditions: rat; 0.5 h between administration and CSF sampling; read-out: c(CSF)/c(plasma)
row,Kp at 0.5 h,SMILES
1,0.1,Cc1nc2cccnc2n2c(-c3cc(OCC(C)(C)O)ccc3Cl)nnc12 [Example 44]

# Same assay, conditions: rat; 2 h between administration and CSF sampling; doses of 10.0 or 5 μmol/kg; read-out: conc CSF
row,concentration at 2 h [nM],SMILES
1,25,Cc1nc2ccc(C3CC3)nc2n2c(-c3cc(OCC(C)(C)O)ccc3Cl)nnc12 [Example 45]
2,276,Cc1nc2cccnc2n2c(-c3cc(C(C)(C)O)ccc3Cl)nnc12 [Example 70]

# Same assay, conditions: rat; 2 h between administration and CSF sampling; read-out: c(CSF)/c(plasma)
row,Kp at 2 h,SMILES
1,0.12,Cc1nc2cccnc2n2c(-c3cc(C(C)(C)O)ccc3Cl)nnc12 [Example 70]

# Source: US20140045856A1, “4-Methyl-2,3,5,9,9b-pentaaza-cyclopenta[a]naphthalenes” (BOEHRINGER INGELHEIM INTERNATIONAL GMBH, priority 2012, published 2014)
